Results published in PMC9000735, “In Vitro Alpha-Glucosidase Inhibitory Activity and the Isolation of Luteolin from the Flower of Gymnanthemum amygdalinum (Delile) Sch. Bip ex Walp” (Molecules, 2022).
Where two headings read alike, the source gives them in different places. Blank lines part the entries; values can stand above or below the compound they belong to.

Columns and labels:
α-glucosidase = target: T1, α-glucosidase (Saccharomyces cerevisiae, UniProt P53341); assay: biochemical; conditions: for IC50: mean ± SD, n = 3, linear regression
T1 construct: purchased Sigma-Aldrich G5003
T1 sequence (P53341 whole entry): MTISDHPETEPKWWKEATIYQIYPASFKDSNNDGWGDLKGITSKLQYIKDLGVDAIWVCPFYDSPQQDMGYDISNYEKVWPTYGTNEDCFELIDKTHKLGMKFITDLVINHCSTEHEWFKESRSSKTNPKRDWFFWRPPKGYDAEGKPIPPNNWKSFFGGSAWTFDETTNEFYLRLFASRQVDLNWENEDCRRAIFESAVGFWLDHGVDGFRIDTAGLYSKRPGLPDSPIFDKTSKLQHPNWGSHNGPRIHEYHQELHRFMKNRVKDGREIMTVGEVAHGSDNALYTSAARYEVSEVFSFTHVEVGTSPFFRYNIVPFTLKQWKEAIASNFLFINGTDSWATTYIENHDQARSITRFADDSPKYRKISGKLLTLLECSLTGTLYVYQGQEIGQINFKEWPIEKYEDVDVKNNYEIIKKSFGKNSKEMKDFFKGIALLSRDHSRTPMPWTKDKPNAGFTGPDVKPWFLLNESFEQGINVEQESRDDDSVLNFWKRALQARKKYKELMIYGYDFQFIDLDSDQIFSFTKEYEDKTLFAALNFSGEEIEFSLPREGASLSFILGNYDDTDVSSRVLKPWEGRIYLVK
Method: A specific spray reagent, citroborate (5 g citric acid, 5 g boric acid, and 100 mL ethanol), and 10% (v/v) H2SO4 in a MeOH solution were used to identify flavonoids and other compounds. Additionally, during extraction and separation, the entire solvents were distilled before use, making them of technical grade.
Alpha-glucosidase inhibition was assessed using the adopted method with slight modifications. Phosphate buffer solution (36 μL), a sample solution with different concentrations ([…]), and pNPG substrate with 6 mM concentration (17 μL) were successively added to 96 microplate wells. The incubation of this mixture was performed at 37 °C for 5 min. In each well, 17 μL of alpha-glucosidase solution at 0.2 U/mL was added to obtain a total volume of […], which was followed by incubation at 37 °C for 15 min. Furthermore, the initial reaction was brought to completion by the addition of Na2CO3 solution (100 μL) at 200 mM. […] Percentage inhibition was used to express the inhibitory activity of alpha-glucosidase, while the calculation followed the formula below:
Inhibition percentage (%) = (B1–B2)/B1 × 100%.
B1 = Blank absorbance * − control of blank absorbance **
B2 = Sample absorbance − control of sample absorbance ***
The IC50 was calculated using a linear regression equation (y = a + bx) in which the sample concentration was represented on the x-axis and the percentage inhibition was represented on the y-axis.

alpha-glucosidase = system: alpha-glucosidase; set-up: method as in PMID 35215317; conditions: cited from earlier work

SMILES: C[C@H]1O[C@H](O[C@H]2[C@H](O)[C@@H](O)[C@@H](O[C@H]3[C@H](O)[C@@H](O)C(O)O[C@@H]3CO)O[C@@H]2CO)[C@H](O)[C@@H](O)[C@@H]1N[C@H]1C=C(CO)[C@@H](O)[C@H](O)[C@H]1O (stereo partly shown) [Acarbose, acarbose]
inhibition at 100 µg/mL (α-glucosidase): 42.13 ± 0.12%
inhibition at 200 µg/mL (α-glucosidase): 66 ± 1.11%
inhibition at 100 µg/mL (α-glucosidase; read-out: Inhibition (in %)): 43.1 ± 0.92%
inhibition at 200 µg/mL (α-glucosidase; read-out: Inhibition (in %)): 66.8 ± 2.11%

SMILES: O=c1cc(-c2ccc(O)c(O)c2)oc2cc(O)cc(O)c12 [Compound 1, 2-(3,4-dihydroxyphenyl)-5,7-dihydroxy-4H-chromen-4-one]
IC50 (α-glucosidase): 22.8 µM
inhibition mechanism type (alpha-glucosidase): non-competitive

IC50 (α-glucosidase): 126 µM
SMILES: COc1c(-c2ccc(O)c(O)c2)oc2cc(O)cc(O)c2c1=O [Compound 2, 2-(3,4-dihydroxyphenyl)-5,7-dihydroxy-3-methoxy-4H-chromen-4-one]
